Experimental data reported in patent US12404332B2, “Methods for diagnosing and treating cancers” (Research Development Foundation, priority 2020, dated 2025).
“Also recorded” adds a separate entry of the source.

Legend:
[1] = tested on: Chk2; assay: Chk2 protein content by immunoblot in B16-F10 cells; assay type: cell-based, mouse; settings: PD-L1^KO but not CTRL B16-F10 cells
[2] = tested on: ID8agg cells; assay: Erlotinib plus olaparib in ID8agg cells (MTT); assay type: cell-based, mouse
Experimental: 1,000 ID8agg cells were plated per well in 96 well plates. Cells were treated with 1, 2, or 3 μM of erlotinib and 5 μM or olaparib.

[3] = tested on: RT4 human bladder cancer cells; assay: In vitro viability (MTT) of CTRL versus PD-L1^KO RT4 cells; assay type: cell-based; settings: for sensitivity of PD-L1^KO versus control RT4 cells to the agent: monotherapy
Experimental: (§1) Cells (1×10^3) were plated in 96 well plastic culture plates in respective medium and treated for 5 days with DDRi or 3 days with gemcitabine at indicated concentrations. Drug concentrations were carefully optimized in preliminary work not shown. Cell viability was by MTT (3-(4,5-dimethylthiazol-2-yl)-2,5-diphenyl tetrazolium bromide) at 5 mg/ml. Absorbance was measured at 540 nm. Results are presented as a mean+/−SEM of ≥6 replicates. Total cells and viability were confirmed using a Vi-Cell-XR (Beckman Coulter).

[4] = tested on: ID8agg murine ovarian cancer cells; assay: In vitro viability (MTT) of CTRL versus PD-L1^KO ID8agg cells; assay type: cell-based, mouse; settings: for sensitivity of PD-L1^KO versus control ID8agg cells to the agent: monotherapy
Experimental: as §1

[5] = tested on: γH2AX in RT4 cells; assay: γH2AX immunoblot (DNA damage) in RT4 cells; assay type: cell-based, human
Experimental: (§2) Immunoblotting was performed as described (Clark et al., 2016; Gupta et al., 2016). Protein was measured by BCA (ThermoFisher). Cell Signaling antibodies were phospho-histone H2A.X (#9718), phospho-Chk1^Ser345 (#2348), phosph-Chk2^Thr68 (#2197), phospho-ATM^Ser1981 (#5883), phospho-ATR^Ser428 (#2853), total-Chk1 (#2360), total-chk2 (#2662), total-ATM (#2873), total-ATR (#13934), total-NBS1 (#14956), total-Rad50 (#3427), RAD51, vinculin (#13901), beta-actin (#12620), human-PD-L1 (#13684), mouse-PD-L1. Abcam antibodies were (ab3801) and (ab80276) and total-BRCA1 was R&D MAB22101. All were used as per manufacturer's recommendation.

[6] = tested on: PD-L1; assay: PD-L1 after DNA damaging agents; assay type: cell-based
[7] = tested on: γH2AX in ID8agg cells; assay: γH2AX immunoblot (DNA damage) in ID8agg cells; assay type: cell-based, mouse
Experimental: as §2

[8] = tested on: CTRL or PD-L1^KO B16 tumors; assay: B16 tumor growth in wild type or RAG2^KO mice; assay type: in vivo, mouse
Experimental: B16 cells were injected subcutaneously on opposite flanks into BL6 (0.5×10^6 cells) or RAG2^KO mice (0.4×10^6). Olaparib was administered daily intraperitoneally (50 mg/kg, 4% DMSO) on days 3-13. Tumors were measured with Vernier calipers and volume calculated as (length×width^2)/2. Mice were sacrificed when tumors reached ˜1500 mm^3 or if distressed.

[9] = tested on: MB49 murine bladder cancer cells; assay: In vitro viability (MTT) of CTRL versus PD-L1^KO MB49 cells; assay type: cell-based, mouse
Experimental: as §1

[10] = tested on: CTRL or PD-L1^KO MB49 tumors; assay: MB49 tumor growth in NSG mice; assay type: in vivo, mouse; settings: PD-L1^KO but not control MB49 tumors
Experimental: (§3) NSG mice were challenged with MB49 (0.3×10^6 cells) subcutaneously on opposite flanks. Olaparib (daily 25 mg/kg, 4% DMSO) was injected intraperitoneally on days 3-11. 4T1 (0.5×10^6 cells) were injected into mammary fat pads of NSG mice with Matrigel (1:1, Corning). Rabusertib (LY2602618, 4% DMSO) was administered intraperitoneally on day 3 (10 mg/kg) and days 10 and 17 (1 mg/kg).

[11] = tested on: B16 murine melanoma cells; assay: In vitro viability (MTT) of CTRL versus PD-L1^KO B16 cells; assay type: cell-based, mouse
Experimental: as §1

[12] = tested on: human MDA-MB-231 triple negative breast cancer cells; assay: In vitro sensitivity of PD-L1^lo versus CTRL MDA-MB-231 cells; assay type: cell-based
[13] = tested on: 4T1 tumors; assay: 4T1 tumors in mice treated with Chk1i ± αPD-L1; assay type: in vivo, mouse; settings: wild type mice
Experimental: (§4) FIGS. 27A-H: Anti-PD-L1 antibodies mimic genetic PD-L1 depletion to impair tumor cell-intrinsic DDR signals and promote sensitivity to Chk1 inhibition in vitro and in vivo. Cell viability of FIG. 27A, CTRL and FIG. 27B, PD-L1^KORT4 cells treated with LY2603618 (Chk1 inhibitor) as shown plus IgG1 isotype or atezolizumab (atezo, 3 μg/ml) for 72 hours in vitro. Mean+SEM, n=6 replicates, ***, P<0.001, unpaired t-test. FIG. 27C, Immunoblot (IB) analysis of ATM, Chk2, γH2AX and vinculin (VINC) of RT4 cells treated in vitro with isotype, atezolizumab, Chk1i, or their combination. FIG. 27D, Viability of 4T1 cells as in panel A substituting anti-murine PD-L1 and isotype controls. FIG. 27E, IB of 4T1 as in panel FIG. 27C. FIG. 27F, Tumor curves of NSG mice (n=10 tumors/group) challenged with 4T1 tumor cells and treated with Chk1i±αPD-L1. FIG. 27G, Tumor curves and FIG. 27H, tumor weights in WT […] mice challenged and treated as in panel FIG. 27F. P values, two-way ANOVA.

[14] = tested on: UV induced TpN^61R derived CD274^+/+ or CD274^−/− melanoma cells; assay: Viability of de novo Nras CD274^+/+ versus CD274^−/− melanoma cells; assay type: cell-based, mouse; settings: in vitro
Text: (§5) FIGS. 26A-H: De novo PD-L1^KO tumors phenocopy important aspects of genetic PD-L1 depletion in established tumors. FIG. 26A, Melanoma-free survival of melanocyte specific CD274^fl,fl TpN^61R (KO) versus littermate (WT) autochthonous mice under conditions shown. FIG. 26B, Validation of PD-L1 expression by immunoblot (IB) of melanoma cells derived from UV induced (4.5 Kj/m^2) WT (CD274^+/+) or melanocyte specific CD274^KO (CD274^−/−) mice±in vitro interferon (IFN)-γ treatment. Viability curves of CD274^+/+ versus CD274^−/− cells treated with the selective Chk1 inhibitors FIG. 26C, prexasertib […] or FIG. 26D, rabusertib (LY2603618) in vitro at indicated concentrations. FIG. 26E, IB analysis of PD-L1, ATM, Chk2, and γH2AX of vehicle or rabusertib-treated CD274^+/+ and CD274^−/− cell lines. FIGS. 26F-H, Tumor growth curves in WT C57BL/6J mice (n=10 tumors/group) challenged with UV induced TpN^61R derived CD274^+/+ or CD274^−/− melanoma cells and treated with rabusertib (Chk1i, LY2603618) on the indicated treatment schedule. P values, two-way ANOVA.

[15] = tested on: 4T1 murine breast cancer cells; assay: In vitro viability (MTT) of CTRL versus PD-L1^lo 4T1 cells; assay type: cell-based, mouse; settings: listed as Chk1i
Experimental: as §1

[16] = tested on: TpN^61R derived CD274^+/+ or CD274^−/− melanoma tumors; assay: Growth of de novo PD-L1 null versus replete melanoma in C57BL/6J mice; assay type: in vivo, mouse; settings: C57BL/6J wild type mice
Text: as §5

[17] = tested on: CTRL and PD-L1^KO RT4 cells; assay: Viability of RT4 cells treated with Chk1 inhibitor plus atezolizumab; assay type: cell-based, human; settings: in vitro, absence of immune cells
Experimental: as §4

[18] = tested on: CTRL or PD-L1^lo 4T1 tumors; assay: 4T1 tumor growth in NSG mice; assay type: in vivo, mouse; settings: PD-L1^lo but not control 4T1 tumors, NSG females
Experimental: as §3

**Q.** With CO/C1=C\C(C)=C\[C@@H](C)[C@@H](O)[C@@H](C)C/C(C)=C/C=C/[C@H](OC)[C@@H]([C@@H](C)[C@@H](O)[C@H](C)[C@@]2(O)C[C@@H](O)[C@H](C)[C@@H](C(C)C)O2)OC1=O [Bafilomycin A1] as the molecule, how does the Chk2 accumulation [1] read?
**A.** The Chk2 accumulation was “led to Chk2 accumulation”.

**Q.** Which “olaparib activity in combination” value ([2]; FIG. 46A) does the source give for C#Cc1cccc(Nc2ncnc3cc(OCCOC)c(OCCOC)cc23)c1 [erlotinib] here?
**A.** Its value is “Olaparib activity is seen with erlotinib”.

**Q.** What about the “PD-L1 depletion over time” value ([2]; previous western, 24 hours, but not at 48 hours) of the same molecule?
**A.** The value was “only depletes PD-L1 for short periods of time”.

**Q.** Which “fold more sensitive to gemcitabine, PD-L1^KO versus control cells” value ([3]; RT4 cells) does the source give for Nc1ccn([C@@H]2O[C@H](CO)[C@@H](O)C2(F)F)c(=O)n1 [gemcitabine] here?
**A.** Its value is 2 fold.

**Q.** What about the “sensitivity of PD-L1^KO versus control RT4 cells to the agent” value [3] of the same molecule?
**A.** The value was “substantially lower viability”.

**Q.** And the “fold more sensitive to gemcitabine, PD-L1^KO versus control cells” value ([4]; ID8agg cells)?
**A.** Its value is 29 fold.

**Q.** And the “γH2AX following treatment, PD-L1^KO versus control cells” value [5]?
**A.** Its value is “markedly elevated; also recorded: accumulated more γH2AX”.

**Q.** What about the “PD-L1 after DNA damaging agent” value [6] of the same molecule?
**A.** The value was “increased PD-L1”.

**Q.** What about the “γH2AX following treatment, PD-L1^KO versus control cells” value [7] of the same molecule?
**A.** The value was “markedly elevated”.

**Q.** How did the “sensitivity of PD-L1^KO versus control RT4 cells to the agent” value [3] turn out when O=C(c1cc(Cc2n[nH]c(=O)c3ccccc23)ccc1F)N1CCN(C(=O)C2CC2)CC1 [olaparib] was run?
**A.** Its value is “Minimal effects”.

**Q.** And the “sensitivity of PD-L1^KO versus control ID8agg cells to the agent” value [4]?
**A.** Its value is “Minimal effects”.

**Q.** What about the “limiting PD-L1^KO B16 tumors” value ([8]; RAG2^KO mice lacking adaptive immunity) of the same molecule?
**A.** The value was “ineffective”.

**Q.** What about the “control of PD-L1^KO versus control B16 growth” value ([8]; wild type mice) of the same molecule?
**A.** Its value is “significantly more effective”.

**Q.** And the “sensitivity of PD-L1^KO versus control MB49 cells to the agent” value [9]?
**A.** The value was “more sensitive”.

**Q.** And the “tumor growth and weight after treatment” value [10]?
**A.** Its value is “robustly growth inhibited and weighed less”.

**Q.** And the “cytotoxicity against PD-L1^KO versus control B16 cells” value [11]?
**A.** Its value is “Moderate differences”.

**Q.** With Cc1cnc(NC(=O)Nc2cc(Br)c(C)cc2OC[C@@H]2CNCCO2)cn1 [rabusertib] as the molecule, how does the “cytotoxicity in PD-L1^KO versus control RT4 cells” value [3] read?
**A.** Its value is “over 15 fold”.

**Q.** What about the “sensitivity of PD-L1^KO versus control RT4 cells to the agent” value [3] of the same molecule?
**A.** The value was “striking cytotoxicity”.

**Q.** And the “sensitivity of PD-L1^KO versus control ID8agg cells to the agent” value ([4]; listed as Chk1i)?
**A.** Its value is “enhanced sensitivity”.

**Q.** What about the “sensitivity of PD-L1^lo versus CTRL MDA-MB-231 cells” value [12] of the same molecule?
**A.** Its value is “more sensitive”.

**Q.** What about the “4T1 tumors in vivo” value [13] of the same molecule?
**A.** Its value is “failed to benefit”.

**Q.** And the “PD-L1 after DNA damaging agent” value [6]?
**A.** Its value is “increased PD-L1”.

**Q.** What about the “synthetic lethality in induced PD-L1^KO tumors” value [14] of the same molecule?
**A.** Its value is “exhibited synthetic lethality”.

**Q.** And the “sensitivity of PD-L1^lo versus control 4T1 cells to the agent” value [15]?
**A.** Its value is “significantly growth inhibited; also recorded: enhanced sensitivity”.

**Q.** What about the “cytotoxicity against PD-L1^KO versus control B16 cells” value [11] of the same molecule?
**A.** Its value is “striking cytotoxicity”.

**Q.** And the “control of in vivo growth, PD-L1 null versus PD-L1 replete tumors” value [16]?
**A.** The value was “controlled in vivo growth significantly better”.

**Q.** And the “viability of RT4 cells, single agent” value [17]?
**A.** Its value is “expected dose-response toxicity”.

**Q.** What about the “tumor sensitivity to single agent treatment” value [18] of the same molecule?
**A.** Its value is “particularly sensitive”.

**Q.** For atezolizumab, which “viability of RT4 cells, single agent” value [17] is on record?
**A.** The value was “slightly reduced viability”.
